In ChEMBL document CHEMBL3217713, “Synthesis and biological evaluation of primaquinechloroquine twin drug: a novel heme-interacting molecule prevents free heme and hydroxyl radical-mediated protein degradation” (Medchemcomm, 2013):
The source made the active and inactive calls. The rule behind the calls is not given here.

Key:
[1] = Antioxidant activity assessed as reduction of Fe(3)-TPTZ to Fe(2)-TPTZ complex after 5 mins by FRAP assay; type: functional
[2] = test system: Heme; assay: Binding affinity to heme (unknown origin)
[3] = Cytotoxicity against rat gastric mucosal cells assessed as cell viability at 10 to 100 uM after 16 hrs by MTT assay; type: cell-based, Gastric mucosa
[4] = test system: Radical scavenging activity; assay: Antioxidant activity assessed as DPPH free radical scavenging activity after 30 mins by spectrophotometry; type: functional
[5] = Antioxidant activity assessed as reduction of heme/H2O2-mediated BSA degradation at 50 uM after 1 hr by SDS-PAGE; type: functional
[6] = Antioxidant activity assessed as reduction of hydroxyl radical-mediated BSA damage at 50 uM after 30 mins by SDS-PAGE; type: functional
[7] = Iron chelating activity of the compound assessed as reduction of Fe(2)-TPTZ complex formation by UV-visible spectrophotometry; type: physicochemical
[8] = test system: Heme; assay: Binding affinity to heme (unknown origin) by differential spectroscopy
[9] = test system: Heme; assay: Binding affinity to heme (unknown origin) at 2 to 20 uM by optical spectroscopy

Molecule `O=C(O)c1cc(O)c(O)c(O)c1` has an Activity [1] of 33.9 µM.
`CCN(CC)CCCC(C)Nc1ccnc2cc(Cl)ccc12` (stereo not drawn) gave a Ka [2] of 5.5 ×10⁴ /M.
For `COc1cc(NC(C)CCCN)c2ncccc2c1` (stereo not drawn) [PRIMAQUINE], the Activity [3] was “Toxic”.
In the case of `COc1cc(NC(C)CCCNc2ccnc3cc(Cl)ccc23)c2ncccc2c1` (stereo not drawn), the Activity [3] is reported as “Non-toxic”, the Activity [4] is reported as “Dose-dependent effect” and the IC50 [4] is reported as 23 µM. For the same molecule, the Activity [5] was “Active”, the Activity [6] was “Active” and the Activity [1] was 30 µM. It also gave a Kd [7] of 5.19 µM, a Kapp [8] of 2.3 ×10⁴ /M and a Kd [8] of 4.34 µM. For the same molecule, the Activity [9] was “Active”.
